Where “and” joins values, the source holds several entries; their conditions need not be identical. Equal values may be shown once. Read-outs that look alike come from different tables or passages of the source.
Assays:
CDK12–cyclin K = CDK12–cyclin K (Homo sapiens, UniProt Q9NYV4); experiment: Lanthascreen kinase binding assay, CDK12; settings: series r1, duplicates
Description: (§1) Lanthascreen experiments were performed using commercially available reagents (Thermo Fisher) and according to the manufacturer’s instructions.

[1] = tested on: cyclin K–eGFP degradation reporter; experiment: Cyclin K reporter stability analysis (dual-color cyclin K–eGFP reporter); format: cell-based, human; settings: source data sheet correlations; read-out: DC50
Summary of the method: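 Readout was the eGFP-to-mCherry geometric-mean ratio by flow cytometry, normalized to three DMSO controls, after 5 h drug exposure. Cells used were HEK293T–Cas9 expressing the dual-colour cyclin K–eGFP degradation reporter.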

CDK9–cyclin T = target: T1, CDK9–cyclin T (Homo sapiens, UniProt P50750); experiment: Lanthascreen kinase binding assay, CDK9; settings: for Lanthascreen TR-FRET signal (raw ratio), sheet CDK9: first titration set (r1), duplicates
T1 construct: purchased Thermo Fisher
Description: as §1

CDK2–cyclin A = target: T2, CDK2–cyclin A (Homo sapiens, UniProt P24941); experiment: Lanthascreen kinase binding assay, CDK2; settings: for Lanthascreen signal, sheet CDK2: raw replicates, experiment r1-r11
T2 construct: purchased Thermo Fisher
Description: as §1

HEK293T cells = experiment: Drug sensitivity assay (CellTiter-Glo viability) with or without MLN4924 pretreatment; format: cell-based, human; settings: Supplementary Table 2
Summary of the method: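 Luminescent ATP read-out (CellTiter-Glo) after 3 days of drug exposure, normalised to DMSO controls. Cells were HEK293T–Cas9, pretreated with 100 nM MLN4924 or DMSO for 2 h before drug dispensing.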

CDK12–cyclin K and DDB1 = target: T3, CDK12–cyclin K and DDB1 (Homo sapiens, UniProt Q16531+Q9NYV4, K965R); experiment: TR-FRET ternary complex formation assay (compound titration); format: binding
T3 construct: His6–CDK12 (a.a. 713–1,052); full-length or beta-propeller B domain deletion (ΔBPB: a.a. 396–705 deleted) constructs of His6–DDB1ΔBPB, StrepII–Avi–DDB1, or His6–Spy–DDB1; made in house; host or cells: Trichoplusia ni High Five insect cells (baculovirus)
Summary of the method: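 TR-FRET ratio 520/490 nm; 70 μs delay before read to suppress background.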

T1 sequence (P50750 whole entry): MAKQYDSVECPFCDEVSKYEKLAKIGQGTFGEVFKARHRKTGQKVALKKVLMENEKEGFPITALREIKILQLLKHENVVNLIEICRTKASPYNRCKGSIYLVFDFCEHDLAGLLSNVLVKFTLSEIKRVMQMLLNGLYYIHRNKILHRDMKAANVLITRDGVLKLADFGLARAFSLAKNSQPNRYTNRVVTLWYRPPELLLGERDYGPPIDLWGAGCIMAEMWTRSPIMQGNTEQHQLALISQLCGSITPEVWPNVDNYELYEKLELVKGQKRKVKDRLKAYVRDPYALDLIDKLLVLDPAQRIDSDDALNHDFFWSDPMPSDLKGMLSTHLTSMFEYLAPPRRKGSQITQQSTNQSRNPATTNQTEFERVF
T1 sequence (O60563 whole entry partner): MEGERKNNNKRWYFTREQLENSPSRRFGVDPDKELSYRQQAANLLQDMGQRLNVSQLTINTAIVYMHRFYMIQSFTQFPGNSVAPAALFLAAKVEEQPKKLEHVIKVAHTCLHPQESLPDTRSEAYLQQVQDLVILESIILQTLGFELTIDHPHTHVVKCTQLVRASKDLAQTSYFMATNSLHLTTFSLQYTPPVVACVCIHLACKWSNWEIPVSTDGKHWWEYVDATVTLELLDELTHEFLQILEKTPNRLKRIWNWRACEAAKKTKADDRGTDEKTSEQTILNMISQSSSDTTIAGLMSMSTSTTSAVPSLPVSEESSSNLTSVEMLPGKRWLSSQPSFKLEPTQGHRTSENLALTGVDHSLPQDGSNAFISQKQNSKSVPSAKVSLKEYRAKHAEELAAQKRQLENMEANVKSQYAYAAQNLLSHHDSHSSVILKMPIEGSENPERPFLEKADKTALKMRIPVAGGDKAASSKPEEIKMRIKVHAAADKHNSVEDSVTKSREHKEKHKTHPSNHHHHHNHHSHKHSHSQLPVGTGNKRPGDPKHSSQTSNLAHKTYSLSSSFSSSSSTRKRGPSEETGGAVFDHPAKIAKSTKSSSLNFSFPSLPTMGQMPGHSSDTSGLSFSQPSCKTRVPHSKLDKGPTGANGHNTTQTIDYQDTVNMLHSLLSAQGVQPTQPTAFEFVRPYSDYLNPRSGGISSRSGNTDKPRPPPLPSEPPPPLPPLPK
T3 sequence (Q9NYV4 713-1052 K965R): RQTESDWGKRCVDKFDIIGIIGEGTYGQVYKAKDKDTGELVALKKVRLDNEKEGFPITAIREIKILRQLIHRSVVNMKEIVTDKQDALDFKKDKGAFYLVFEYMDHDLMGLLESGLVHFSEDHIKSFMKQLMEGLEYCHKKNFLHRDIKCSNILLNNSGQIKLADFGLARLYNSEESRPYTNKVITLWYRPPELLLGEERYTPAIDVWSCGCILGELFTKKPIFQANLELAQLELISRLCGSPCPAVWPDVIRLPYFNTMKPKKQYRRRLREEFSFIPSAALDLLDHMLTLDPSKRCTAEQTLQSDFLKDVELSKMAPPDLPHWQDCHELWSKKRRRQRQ
T3 sequence (O75909 1-267 partner): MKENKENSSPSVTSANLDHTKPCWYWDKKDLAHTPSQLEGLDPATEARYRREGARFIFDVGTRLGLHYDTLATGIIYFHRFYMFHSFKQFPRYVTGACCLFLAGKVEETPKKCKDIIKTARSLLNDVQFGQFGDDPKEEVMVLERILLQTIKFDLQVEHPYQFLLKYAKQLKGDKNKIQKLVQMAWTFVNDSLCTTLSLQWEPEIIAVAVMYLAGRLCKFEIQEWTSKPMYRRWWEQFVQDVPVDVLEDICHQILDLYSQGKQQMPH
T3 sequence (Q16531 whole entry): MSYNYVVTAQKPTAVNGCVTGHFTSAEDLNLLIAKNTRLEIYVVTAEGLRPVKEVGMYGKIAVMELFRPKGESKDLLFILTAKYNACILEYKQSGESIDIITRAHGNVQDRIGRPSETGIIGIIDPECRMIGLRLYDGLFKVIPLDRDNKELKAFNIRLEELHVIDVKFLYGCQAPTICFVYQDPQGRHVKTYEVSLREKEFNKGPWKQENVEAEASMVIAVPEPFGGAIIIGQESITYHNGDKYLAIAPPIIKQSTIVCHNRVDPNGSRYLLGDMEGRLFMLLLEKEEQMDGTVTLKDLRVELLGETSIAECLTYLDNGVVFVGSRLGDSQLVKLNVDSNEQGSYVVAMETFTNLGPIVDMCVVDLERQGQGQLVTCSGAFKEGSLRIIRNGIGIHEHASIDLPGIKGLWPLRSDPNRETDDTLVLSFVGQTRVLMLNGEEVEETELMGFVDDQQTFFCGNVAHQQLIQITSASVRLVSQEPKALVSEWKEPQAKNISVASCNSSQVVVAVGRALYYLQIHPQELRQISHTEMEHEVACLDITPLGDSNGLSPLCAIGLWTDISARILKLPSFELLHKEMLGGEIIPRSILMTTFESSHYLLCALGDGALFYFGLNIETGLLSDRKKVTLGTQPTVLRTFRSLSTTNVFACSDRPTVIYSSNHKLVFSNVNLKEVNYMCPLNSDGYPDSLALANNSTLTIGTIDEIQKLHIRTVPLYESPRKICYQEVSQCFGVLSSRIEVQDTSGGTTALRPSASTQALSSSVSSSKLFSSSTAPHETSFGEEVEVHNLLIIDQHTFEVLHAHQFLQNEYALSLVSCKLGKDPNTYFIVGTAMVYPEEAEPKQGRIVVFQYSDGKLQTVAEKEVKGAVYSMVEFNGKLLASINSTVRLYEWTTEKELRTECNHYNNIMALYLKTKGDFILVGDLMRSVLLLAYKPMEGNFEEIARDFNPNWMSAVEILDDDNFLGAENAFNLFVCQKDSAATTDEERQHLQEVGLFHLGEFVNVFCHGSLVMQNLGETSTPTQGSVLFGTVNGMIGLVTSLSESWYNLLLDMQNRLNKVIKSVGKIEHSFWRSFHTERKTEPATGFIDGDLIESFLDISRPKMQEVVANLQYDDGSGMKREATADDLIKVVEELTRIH
Sequence of CDK12–cyclin K (Q9NYV4 713-1052): as the sequence (Q9NYV4 713-1052 K965R) above, with R253K counted along it
Sequence of CDK12–cyclin K (O75909 1-267 partner limits assumed): as the sequence (O75909 1-267 partner) above

SMILES: CC[C@H](CO)Nc1nc(NCc2nc3c(F)c(F)ccc3[nH]2)c2ncn(C(C)C)c2n1 [DS64]
- Lanthascreen raw signal, sheet CDK12 (CDK12–cyclin K; compound 1.02544 nM): 0.01144 and 0.008554
- Lanthascreen raw signal, sheet CDK12 (CDK12–cyclin K; compound 3.15521 nM): 0.008537 and 0.009228
- Lanthascreen raw signal, sheet CDK12 (CDK12–cyclin K; compound 9.46563 nM): 0.008646 and 0.00887
- Lanthascreen raw signal, sheet CDK12 (CDK12–cyclin K; compound 31.5521 nM): 0.00802 and 0.006596
- Lanthascreen raw signal, sheet CDK12 (CDK12–cyclin K; compound 99.3891 nM): 0.007448 and 0.007338
- Lanthascreen raw signal, sheet CDK12 (CDK12–cyclin K; compound 315.521 nM): 0.006013 and 0.008259
- Lanthascreen raw signal, sheet CDK12 (CDK12–cyclin K; compound 3155.21 nM): 0.007185 and 0.006229
- Lanthascreen raw signal, sheet CDK12 (CDK12–cyclin K; compound 10002 nM): 0.005174 and 0.004623
- DC50 [1]: 0.062 µM
- IC50 (CDK9–cyclin T; Lanthascreen, average, Extended Data Fig. 8, read-out: CDK9 IC50): > 10000 nM
- IC50 (CDK9–cyclin T; Supplementary Table 2, read-out: Lanthascreen IC50 [nM] CDK9): > 10000 nM
- Lanthascreen TR-FRET signal (raw ratio), sheet CDK9 (CDK9–cyclin T; compound 1.02544 nM): 0.01262 and 0.01798
- Lanthascreen TR-FRET signal (raw ratio), sheet CDK9 (CDK9–cyclin T; compound 3.15521 nM): 0.01403 and 0.01513
- Lanthascreen TR-FRET signal (raw ratio), sheet CDK9 (CDK9–cyclin T; compound 9.46563 nM): 0.01561 and 0.01591
- Lanthascreen TR-FRET signal (raw ratio), sheet CDK9 (CDK9–cyclin T; compound 31.5521 nM): 0.01447 and 0.01334
- Lanthascreen TR-FRET signal (raw ratio), sheet CDK9 (CDK9–cyclin T; compound 99.3891 nM): 0.01493 and 0.01478
- Lanthascreen TR-FRET signal (raw ratio), sheet CDK9 (CDK9–cyclin T; compound 315.521 nM): 0.01351 and 0.01148
- Lanthascreen TR-FRET signal (raw ratio), sheet CDK9 (CDK9–cyclin T; compound 3155.21 nM): 0.008801 and 0.0091
- Lanthascreen TR-FRET signal (raw ratio), sheet CDK9 (CDK9–cyclin T; compound 10002 nM): 0.004226 and 0.004622
- Lanthascreen signal, sheet CDK2 (CDK2–cyclin A; Compound 1.02544 nM): 0.01032 and 0.009036
- Lanthascreen signal, sheet CDK2 (CDK2–cyclin A; Compound 3.15521 nM): 0.009561 and 0.01039
- Lanthascreen signal, sheet CDK2 (CDK2–cyclin A; Compound 9.46563 nM): 0.01132 and 0.01064
- Lanthascreen signal, sheet CDK2 (CDK2–cyclin A; Compound 31.5521 nM): 0.009578 and 0.01231
- Lanthascreen signal, sheet CDK2 (CDK2–cyclin A; Compound 99.3891 nM): 0.0112 and 0.01036
- Lanthascreen signal, sheet CDK2 (CDK2–cyclin A; Compound 315.521 nM): 0.00859 and 0.007854
- Lanthascreen signal, sheet CDK2 (CDK2–cyclin A; Compound 3155.21 nM): 0.006995 and 0.007302
- Lanthascreen signal, sheet CDK2 (CDK2–cyclin A; Compound 10002 nM): 0.004999 and 0.005409
- IC50 (CDK2–cyclin A; Supplementary Table 2, read-out: Lanthascreen IC50 [nM] CDK2): 4960 nM
- EC50 (HEK293T cells; Homo sapiens, HEK-293T, HEK293T viability, 72 h, compound alone, read-out: Cellular assays EC50): 0.527 µM
- Toxicity rescue (HEK293T cells; MLN4924-mediated cytotoxicity rescue, 10 µM used where n.d.): 971%
- TR-FRET signal at compound concentration 0.468 nM (CDK12–cyclin K and DDB1; compound concentration 0.468 nM, raw replicate titration data): 0.2748 and 0.2878
- TR-FRET signal at compound concentration 2.16 nM (CDK12–cyclin K and DDB1; compound concentration 2.16 nM, raw replicate titration data): 0.3281 and 0.3452
- TR-FRET signal at compound concentration 3.6 nM (CDK12–cyclin K and DDB1; compound concentration 3.6 nM, raw replicate titration data): 0.4287 and 0.4479
- TR-FRET signal at compound concentration 7.92001 nM (CDK12–cyclin K and DDB1; compound concentration 7.92001 nM, raw replicate titration data): 0.6146 and 0.6538
- TR-FRET signal at compound concentration 15.84 nM (CDK12–cyclin K and DDB1; compound concentration 15.84 nM, raw replicate titration data): 0.9627 and 1.0618
- TR-FRET signal at compound concentration 30.96 nM (CDK12–cyclin K and DDB1; compound concentration 30.96 nM, raw replicate titration data): 1.485 and 1.709
- TR-FRET signal at compound concentration 62.6401 nM (CDK12–cyclin K and DDB1; compound concentration 62.6401 nM, raw replicate titration data): 2.204 and 2.463
- TR-FRET signal at compound concentration 125.28 nM (CDK12–cyclin K and DDB1; compound concentration 125.28 nM, raw replicate titration data): 2.739 and 3.004
- TR-FRET signal at compound concentration 244.8 nM (CDK12–cyclin K and DDB1; compound concentration 244.8 nM, raw replicate titration data): 3.0364 and 3.323
- TR-FRET signal at compound concentration 993.601 nM (CDK12–cyclin K and DDB1; compound concentration 993.601 nM, raw replicate titration data): 3.365 and 3.564
- TR-FRET signal at compound concentration 2001.6 nM (CDK12–cyclin K and DDB1; compound concentration 2001.6 nM, raw replicate titration data): 3.296 and 3.552
- EC50 (CDK12–cyclin K and DDB1; in vitro complex formation, 50 nM CDK12–cyclin K, 100 nM DDB1, text and figures, read-out: TR-FRET EC50): 0.041 ± 0.002 µM
- EC50 (CDK12–cyclin K and DDB1; sheet MOESM7, read-out: log TR-FRET EC50 (converted)): 0.0409 µM
- EC50 (CDK12–cyclin K and DDB1; source data sheet correlations, read-out: TR-FRET EC50): 0.0409 µM
